Patent US20240199546A1, “INHIBITORS OF SOLUTE CARRIER FAMILY 6A MEMBER 19 (SLC6A19) AND METHODS OF USE THEREOF” (Maze Therapeutics, Inc., priority 2022, published 2024)

The compounds below were run against T1, human SLC6A19 and TMEM27 (Homo sapiens, UniProt Q695T7) (assay: 13C6,15N-isoleucine uptake in CHO cells with doxycycline-inducible expression of human SLC6A19 and TMEM27, RapidFire mass spectrometry (Example B-2)). Details: read-out: SLC6A19_RapidFire Uptake Assay IC50.
T1 construct: expressed in transfected cells
T1 sequence (Q695T7 1-634): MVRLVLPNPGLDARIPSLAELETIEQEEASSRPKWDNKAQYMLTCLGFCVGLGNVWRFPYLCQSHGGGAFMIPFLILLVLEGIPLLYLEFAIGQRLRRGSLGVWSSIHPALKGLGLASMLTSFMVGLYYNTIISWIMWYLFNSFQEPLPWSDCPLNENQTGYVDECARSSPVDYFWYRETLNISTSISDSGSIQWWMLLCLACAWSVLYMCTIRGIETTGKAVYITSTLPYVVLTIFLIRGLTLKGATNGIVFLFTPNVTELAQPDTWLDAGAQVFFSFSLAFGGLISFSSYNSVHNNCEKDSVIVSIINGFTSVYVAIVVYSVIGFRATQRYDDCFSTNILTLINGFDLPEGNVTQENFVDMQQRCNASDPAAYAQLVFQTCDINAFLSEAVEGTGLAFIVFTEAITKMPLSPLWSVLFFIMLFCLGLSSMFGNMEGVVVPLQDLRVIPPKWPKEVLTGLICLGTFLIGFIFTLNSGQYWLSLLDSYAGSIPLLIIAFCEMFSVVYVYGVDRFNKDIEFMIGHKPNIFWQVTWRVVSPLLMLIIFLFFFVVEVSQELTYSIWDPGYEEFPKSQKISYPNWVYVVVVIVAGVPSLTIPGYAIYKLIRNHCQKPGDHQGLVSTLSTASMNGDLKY
T1 sequence (Q9HBJ8 15-222 partner): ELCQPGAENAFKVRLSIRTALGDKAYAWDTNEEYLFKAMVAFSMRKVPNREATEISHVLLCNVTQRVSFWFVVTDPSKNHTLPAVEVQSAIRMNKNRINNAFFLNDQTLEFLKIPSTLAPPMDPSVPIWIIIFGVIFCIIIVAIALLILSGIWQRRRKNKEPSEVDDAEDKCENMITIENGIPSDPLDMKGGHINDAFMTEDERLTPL
Assay type: cell-based
Method: Assay ready vials of CHO cells with doxycycline inducible expression of human SLC6A19 and TMEM27 were thawed, plated in T175 flasks containing DMEM/F12 media, 10% FBS, 1% Penicillin-Streptomycin, 1× UltraGlutamate, 1 mM Sodium Pyruvate, Sodium Bicarbonate (7.5 mL of 7.5% solution in 500 mL media final), 5 μg/mL Blasticidin, 150 μg/mL Hygromycin B Gold, and 500 μg/mL G418, and incubated (humidified, 37° C. with 5% CO2) for 48 hours. Media was then removed, flasks were washed with 20 mL of DPBS, and 5 mL of TrypLE™ Express was added to each flask to initiate cell dissociation. After 5 minutes, 10 mL of cell culture media was added to each flask and mixed. The cell suspension was collected and centrifuged for 5 minutes at 200×g. The supernatant was removed, and the pellet was resuspended in 10 mL of cell culture media. Resuspended cells were counted using a Vi-Cell. 30 μL/well (20,000 cells/well) of cell suspension was added to Poly-D-Lysine 384-well black/clear plates. Plates were incubated (humidified, 37° C. with 5% CO2) for 24 hours. To induce expression of human SLC6A19 and TMEM27, 10 μL of assay culture media containing 4 μg/mL doxycycline was added to each well. Assay plates were then incubated (humidified, 37° C. with 5% CO2) overnight. After incubation, the media was removed, and wells were washed 3 times with 40 μL of warmed DPBS. Next, 10 μL of warmed assay buffer (137 mM NaCl, 5 mM KCl, 1 mM CaCl2), 1 mM MgCl2, 10 mM HEPES, 10 mM glucose, pH 7.2) was added to each well. 10 μL/well of test compound or positive control compound to define 0% activity (i.e., 100% inhibition), was then added into each well. All compounds were plated in a duplicate 10-point dilution series that consisted of 2-fold dilutions. The plates were incubated (humidified, 37° C. with 5% C2) with compound for 20 minutes. Afterwards, 20 μL/well of 2 mM 13C6,15N-1-isoleucine was added to each well and plates were incubated again (humidified, 37° C. with 5% C02) for another 20 minutes. Assay buffer was then removed, and plates were washed. 70 μL/well of stop solution (75% acetonitrile, 25% HPLC grade water, 250 nM 1-leucine-1-13C (RapidFire standard)) was added to each well. The plates were sealed and then placed in a −20° C. freezer for 20 minutes. The plates were thawed at room temperature for 20 minutes and then centrifuge for 20 minutes at 3000 rpm. Using an ABSciex API4000 mass spectrometer, processed samples were loaded onto the graphitic carbon SPE-column. The time for aspiration, load/wash, elution and re-equilibration time was 600, 1500, 3000 and 500 milliseconds, respectively. Peak areas were calculated using RapidFire Integrator software.

Row | SMILES | IC50
1 | CCC(=O)NCc1cc2ccc(OCc3cc(C)on3)cc2[nH]1 [Compound 47, N-((6-((5-methylisoxazol-3-yl)methoxy)-1H-indol-2-yl)methyl)propionamide] | 698 nM
2 | CCc1cc(COc2cc3[nH]c(CNC(=O)C4(C)CC4)cc3cc2Cl)no1 [Compound 95] | 267 nM
3 | Cc1cc(COc2ccc3cc(CNC(=O)C4(C)CC4)[nH]c3c2)no1 [Compound 50, 1-methyl-N-((6-((5-methylisoxazol-3-yl)methoxy)-1H-indol-2-yl)methyl)cyclopropane-1-carboxamide] | 193 nM
4 | Cc1ccc(COc2cc3[nH]c(CNC(=O)C4(C)CC4)cc3cc2Cl)cn1 [Compound 37, N-((5-chloro-6-((6-methylpyridin-3-yl)methoxy)-1H-indol-2-yl)methyl)-1-methylcyclopropane-1-carboxamide] | 625 nM
5 | CC1(C(=O)NCc2cc3ccc(OCc4cocn4)cc3[nH]2)CC1 [Compound 49, 1-methyl-N-((6-(oxazol-4-ylmethoxy)-1H-indol-2-yl)methyl)cyclopropane-1-carboxamide] | 412 nM
6 | CCC(=O)NCc1cc2ccc(NCc3ccccc3)cc2[nH]1 [Compound 1, N-((6-(benzylamino)-1H-indol-2-yl)methyl)propionamide] | 5540 nM
7 | CC1(C(=O)NCc2cc3ccc(OCc4nccs4)cc3[nH]2)CC1 [Compound 43, 1-methyl-N-((6-(thiazol-2-ylmethoxy)-1H-indol-2-yl)methyl)cyclopropane-1-carboxamide] | 192 nM
8 | CC1(C(=O)NCc2cc3ccc(OCc4cnsn4)cc3[nH]2)CC1 [Compound 166, N-((6-((1,2,5-thiadiazol-3-yl)methoxy)-1H-indol-2-yl)methyl)-1-methylcyclopropane-1-carboxamide] | 48 nM
9 | CC1(C(=O)NCc2cc3ccc(CCc4ccon4)cc3[nH]2)CC1 [Compound 75, N-((6-(2-(isoxazol-3-yl)ethyl)-1H-indol-2-yl)methyl)-1-methylcyclopropanecarboxamide] | 464 nM
10 | CC1(C(=O)NCc2cc3ccc(OCc4cncnc4)cc3[nH]2)CC1 [Compound 52, 1-methyl-N-((6-(pyrimidin-5-ylmethoxy)-1H-indol-2-yl)methyl)cyclopropane-1-carboxamide] | 2110 nM
11 | CNC(=O)COc1ccc2cc(CNC(=O)C3(C)CC3)[nH]c2c1 [Compound 162, 1-methyl-N-((6-(2-(methylamino)-2-oxoethoxy)-1H-indol-2-yl)methyl)cyclopropane-1-carboxamide] | 16300 nM
12 | CN(Cc1ccccc1)c1ccc2cc(CNC(=O)C3(C)CC3)[nH]c2c1 [Compound 2, N-((6-(benzyl(methyl)amino)-1H-indol-2-yl)methyl)-1-methylcyclopropane-1-carboxamide] | 992 nM
13 | CC1(C(=O)NCc2cc3cc(Cl)c(OCc4cccnc4)cc3[nH]2)CC1 [Compound 39, N-((5-chloro-6-(pyridin-3-ylmethoxy)-1H-indol-2-yl)methyl)-1-methylcyclopropane-1-carboxamide] | 370 nM
14 | O=C(NCc1cc2cc(Cl)c(OCc3cncs3)cc2[nH]1)N1CCCC1 [Compound 119, N-((5-chloro-6-(thiazol-5-ylmethoxy)-1H-indol-2-yl)methyl) pyrrolidine-1-carboxamide] | 485 nM
15 | CNC(=O)NCc1cc2cc(Cl)c(OCc3ccon3)cc2[nH]1 [Compound 110, 1-((5-chloro-6-(isoxazol-3-ylmethoxy)-1H-indol-2-yl)methyl)-3-methylurea] | 464 nM
16 | Cc1cc2cc(CNC(=O)C3(C)CC3)[nH]c2cc1OCc1ccon1 [Compound 10, N-((6-(isoxazol-3-ylmethoxy)-5-methyl-1H-indol-2-yl)methyl)-1-methylcyclopropane-1-carboxamide] | 130 nM
17 | CC1(C(=O)NCc2cc3ccc(OCc4cscn4)cc3[nH]2)CC1 [Compound 164, 1-methyl-N-((6-(thiazol-4-ylmethoxy)-1H-indol-2-yl)methyl)cyclopropane-1-carboxamide] | 98 nM
18 | CC1(C(=O)NCc2cc3cc(Cl)c(Cc4ccon4)cc3[nH]2)CC1 [Compound 159, N-((5-chloro-6-(isoxazol-3-ylmethyl)-1H-indol-2-yl)methyl)-1-methylcyclopropanecarboxamide] | 493 nM
19 | CNC(=O)NCc1cc2cc(Cl)c(OCc3cncs3)cc2[nH]1 [Compound 109, 1-((5-chloro-6-(thiazol-5-ylmethoxy)-1H-indol-2-yl)methyl)-3-methylurea] | 515 nM
20 | CNC(=O)NCc1cc2cc(Cl)c(OCc3cocn3)cc2[nH]1 [Compound 111, 1-((5-chloro-6-(oxazol-4-ylmethoxy)-1H-indol-2-yl)methyl)-3-methylurea] | 586 nM

More lines, now with the values ahead:

Row | IC50 | SMILES
21 | 926 nM | Cn1ncc(COc2ccc3cc(CNC(=O)C4(C)CC4)[nH]c3c2)n1 [Compound 173, 1-methyl-N-((6-((2-methyl-2H-1,2,3-triazol-4-yl)methoxy)-1H-indol-2-yl)methyl)cyclopropane-1-carboxamide]
22 | 528 nM | Cc1ncc(COc2cc3[nH]c(CNC(=O)C4(C)CC4)cc3cc2Cl)s1 [Compound 176, N-((5-chloro-6-((2-methylthiazol-5-yl)methoxy)-1H-indol-2-yl)methyl)-1-methylcyclopropane-1-carboxamide]
23 | 38 nM | Cc1cc(COc2cc3[nH]c(CNC(=O)C4(C)CC4)cc3cc2Cl)on1 [Compound 175, N-((5-chloro-6-((3-methylisoxazol-5-yl)methoxy)-1H-indol-2-yl)methyl)-1-methylcyclopropane-1-carboxamide]
24 | 2080 nM | Cn1nnc(COc2ccc3cc(CNC(=O)C4(C)CC4)[nH]c3c2)n1 [Compound 174, 1-methyl-N-((6-((2-methyl-2H-tetrazol-5-yl)methoxy)-1H-indol-2-yl)methyl)cyclopropane-1-carboxamide]
25 | 511 nM | Cc1ncc(COc2ccc3cc(CNC(=O)C4(C)CC4)[nH]c3c2)s1 [Compound 178, 1-methyl-N-((6-((2-methylthiazol-5-yl)methoxy)-1H-indol-2-yl)methyl)cyclopropane-1-carboxamide]
26 | 4450 nM | CC1(C(=O)NCc2cc3ccc(OCC4CCOC4)cc3[nH]2)CC1 (centres unmarked) [Compound 188, 1-methyl-N-((6-((tetrahydrofuran-3-yl)methoxy)-1H-indol-2-yl)methyl)cyclopropane-1-carboxamide]
27 | 183 nM | Cc1cc(COc2ccc3cc(CNC(=O)C4(C)CC4)[nH]c3c2)on1 [Compound 181, 1-methyl-N-((6-((3-methylisoxazol-5-yl)methoxy)-1H-indol-2-yl)methyl)cyclopropane-1-carboxamide]
28 | 83 nM | Cc1noc(COc2ccc3cc(CNC(=O)C4(C)CC4)[nH]c3c2)n1 [Compound 169, 1-methyl-N-((6-((3-methyl-1,2,4-oxadiazol-5-yl)methoxy)-1H-indol-2-yl)methyl)cyclopropane-1-carboxamide]
29 | 7500 nM | Cc1nnc(COc2ccc3cc(CNC(=O)C4(C)CC4)[nH]c3c2)o1 [Compound 167, 1-methyl-N-((6-((5-methyl-1,3,4-oxadiazol-2-yl)methoxy)-1H-indol-2-yl)methyl)cyclopropane-1-carboxamide]
